The results in this text go back to US8772509B2, “Indole compounds as positive allosteric modulators of the muscarinic receptor” (Vanderbilt University, priority 2010, dated 2014).

pEC50: −log10 of the molar value.

For this test, the target named is T1, mAChR M1 (UniProt P08482).
T1 sequence (P08482 1-460): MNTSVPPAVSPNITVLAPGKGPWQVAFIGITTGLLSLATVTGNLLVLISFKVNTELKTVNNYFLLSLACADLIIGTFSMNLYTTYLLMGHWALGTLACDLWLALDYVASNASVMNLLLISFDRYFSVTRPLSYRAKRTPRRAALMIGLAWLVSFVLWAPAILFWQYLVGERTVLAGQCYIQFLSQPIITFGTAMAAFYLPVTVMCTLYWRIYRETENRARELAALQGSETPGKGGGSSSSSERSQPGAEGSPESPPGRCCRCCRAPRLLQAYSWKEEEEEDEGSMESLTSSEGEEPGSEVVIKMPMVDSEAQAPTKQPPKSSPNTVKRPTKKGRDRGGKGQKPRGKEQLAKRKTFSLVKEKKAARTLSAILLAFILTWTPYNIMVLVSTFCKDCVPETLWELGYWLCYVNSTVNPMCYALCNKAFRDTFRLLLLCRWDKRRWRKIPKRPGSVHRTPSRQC
As to the kind of experiment: mAChR M1 cell-based functional assay (calcium mobilization, Fluo-4, FDSS). As to conditions: for Efficacy (% ACh maximum at 30 μM): maximal calcium flux response from curve fit or response at 30 μM compound, as % of the EC80 ACh response; for pEC50: positive allosteric modulation of EC20 acetylcholine response, CHO-K1 cells expressing mAChR M1, read-out: Potency (EC50).

The pEC50 is the EC50 on a negative log10 scale, so that one unit is a factor of ten. As to `Cc1cc(NC(=O)CS(=O)(=O)c2cn(Cc3cccc(-c4cn[nH]c4)c3)c3cc(F)cc(F)c23)no1` [compound 4, 2-((1-(3-(1H-pyrazol-4-yl)benzyl)-4,6-difluoro-1H-indol-3-yl)sulfonyl)-N-(5-methylisoxazol-3-yl)acetamide], the “Efficacy (% ACh maximum at 30 μM)” value was 102% and the pEC50 is 5.73. As for `Cc1cc(NC(=O)CS(=O)(=O)c2cn(Cc3cccc(-c4cnn(C)c4)c3)c3ccccc23)no1` [compound 12, 2-((1-(3-(1-methyl-1H-pyrazol-4-yl)benzyl)-1H-indol-3-yl)sulfonyl)-N-(5-methylisoxazol-3-yl)acetamide], the “Efficacy (% ACh maximum at 30 μM)” value was found to be 95% and the negative-log EC50 (pEC50) was 5.56. `O=C(CS(=O)(=O)c1cn(Cc2cc(Br)ccc2F)c2ccccc12)Nc1ccccc1` [compound 59, 2-{1-[(5-bromo-2-fluorophenyl)methyl]-1H-indole-3-sulfonyl}-N-phenylacetamide]: the pEC50 was under 5.00.

Turning to `O=C(CS(=O)(=O)c1cn(Cc2cccc(-c3ccnc(F)c3)c2)c2cc(F)cc(F)c12)Nc1ccccn1` [compound 20, 2-((4,6-difluoro-1-(3-(2-fluoropyridin-4-yl)benzyl)-1H-indol-3-yl)sulfonyl)-N-(pyridin-2-yl)acetamide], the “Efficacy (% ACh maximum at 30 μM)” value is on record as 36% and the negative-log EC50 (pEC50) was 5.46. The like results for `O=C(CS(=O)(=O)c1cn(Cc2cccc(-c3ccncc3)c2)c2cc(F)cc(F)c12)Nc1ccccn1` [compound 14, 2-((4,6-difluoro-1-(3-(pyridin-4-yl)benzyl)-1H-indol-3-yl)sulfonyl)-N-(pyridin-2-yl)acetamide] were, in that order, 55% and 5.54. The like results for `O=C(CS(=O)(=O)c1cn(Cc2cccc(Br)c2)c2cc(F)cc(F)c12)Nc1cccnc1` [compound 35, 2-((1-(3-bromobenzyl)-4,6-difluoro-1H-indol-3-yl)sulfonyl)-N-(pyridin-3-yl)acetamide] were, in that order, 42% and under 5.00. In the case of `Cc1cc(NC(=O)CS(=O)(=O)c2cn(Cc3cccc(-n4ccnn4)c3)c3cc(F)cc(F)c23)no1` [compound 3, 2-((1-(3-(1H-1,2,3-triazol-1-yl)benzyl)-4,6-difluoro-1H-indol-3-yl)sulfonyl)-N-(5-methylisoxazol-3-yl)acetamide], the “Efficacy (% ACh maximum at 30 μM)” value was determined as 72% and the pEC50 was 5.82. The like results for `O=C(CS(=O)(=O)c1cn(Cc2cccc(Br)c2)c2cc(F)cc(F)c12)Nc1cncnc1` [compound 37, 2-((1-(3-bromobenzyl)-4,6-difluoro-1H-indol-3-yl)sulfonyl)-N-(pyrimidin-5-yl)acetamide] were, in that order, 48% and under 5.00. The like results for `Cc1cc(NC(=O)CS(=O)(=O)c2cn(Cc3cccc(Br)c3)c3ccccc23)no1` [compound 22, 2-((1-(3-bromobenzyl)-1H-indol-3-yl)sulfonyl)-N-(5-methylisoxazol-3-yl)acetamide] were, in that order, 91% and 5.42. As to `Cc1cc(NC(=O)CS(=O)(=O)c2cn(Cc3cccc(C#N)c3)c3ccccc23)no1` [compound 45, 2-{1-[(3-cyanophenyl)methyl]-1H-indole-3-sulfonyl}-N-(5-methyl-1,2-oxazol-3-yl)acetamide], the negative logarithm of the EC50 (pEC50) is under 5.00. Regarding `Cc1cc(NC(=O)CS(=O)(=O)c2cn(Cc3ccc(OC(F)(F)F)cc3)c3ccccc23)no1` [compound 57, N-(5-methyl-1,2-oxazol-3-yl)-2-(1-{[4-(trifluoromethoxy)phenyl]methyl}-1H-indole-3-sulfonyl)acetamide], the pEC50 was under 5.00.

Take `Cc1cc(NC(=O)CS(=O)(=O)c2cn(Cc3cccc(-c4cccnc4)c3)c3cc(F)cc(F)c23)no1` [compound 8, 2-((4,6-difluoro-1-(3-(pyridin-3-yl)benzyl)-1H-indol-3-yl)sulfonyl)-N-(5-methylisoxazol-3-yl)acetamide]: the “Efficacy (% ACh maximum at 30 μM)” value amounted to 68% and the pEC50 was 5.62.

Regarding `Nc1cccc(Cn2cc(S(=O)(=O)CC(=O)Nc3ccccn3)c3c(F)cc(F)cc32)c1` [compound 31, 2-((1-(3-aminobenzyl)-4,6-difluoro-1H-indol-3-yl)sulfonyl)-N-(pyridin-2-yl)acetamide], the “Efficacy (% ACh maximum at 30 μM)” value is 69% and the negative logarithm of the EC50 (pEC50) was 5.25.

Turning to `Cc1cc(NC(=O)CSc2cn(Cc3cccc(Br)c3)c3ccccc23)no1` [compound 51, 2-({1-[(3-bromphenyl)methyl]-1H-indol-3-yl}sulfanyl)-N-(5-methyl-1,2-oxazol-3-yl)acetamide], the pEC50 was under 5.00. As for `O=C(CS(=O)(=O)c1cn(Cc2cccc(-n3ccnn3)c2)c2cc(F)cc(F)c12)Nc1ccccn1` [compound 10, 2-((1-(3-(1H-1,2,3-triazol-1-yl)benzyl)-4,6-difluoro-1H-indol-3-yl)sulfonyl)-N-(pyridn-2-yl)acetamide], the “Efficacy (% ACh maximum at 30 μM)” value was found to be 67% and the negative-log EC50 (pEC50) was 5.59. The like results for `O=C(CS(=O)(=O)c1cn(Cc2ccccc2)c2cc(F)cc(F)c12)Nc1ccccn1` [compound 1, 2-((1-benzyl-4,6-difluoro-1H-indol-3-yl)sulfonyl)-N-(pyridin-2-yl)acetamide] were, in that order, 59% and 6.00. Turning to `Cc1cc(NC(=O)C(C)S(=O)(=O)c2cn(Cc3cc(Br)ccc3F)c3ccccc23)no1` (stereo not drawn) [compound 63, 2-{1-[(5-bromo-2-fluorophenyl)methyl]-1H-indole-3-sulfonyl}-N-(5-methyl-1,2-oxazol-3-yl)propanamide], the pEC50 was under 5.00. Still for that read-out and setting: the figure for `Cc1cc(NC(=O)CS(=O)(=O)c2cn(Cc3cc(Br)cc(Br)c3)c3ccccc23)no1` [compound 68, 2-{1-[(3,5-dibromophenyl)methyl]-1H-indole-3-sulfonyl}-N-(5-methyl-1,2-oxazol-3-yl)acetamide] is under 5.00. On to `Cc1cc(NC(=O)CS(=O)(=O)c2cn(Cc3cccc(-c4ccc(Cl)nc4)c3)c3ccccc23)no1` [compound 64, 2-(1-{[3-(6-chloropyridin-3-yl)phenyl]methyl}-1H-indole-3-sulfonyl)-N-(5-methyl-1,2-oxazol-3-yl)acetamide], for which the pEC50 is under 5.00. On to `O=C(CS(=O)(=O)c1cn(Cc2cccc(-c3cccnc3Cl)c2)c2cc(F)cc(F)c12)Nc1ccccn1` [compound 11, 2-((1-(3-(2-chloropyridin-3-yl)benzyl)-4,6-difluoro-1H-indol-3-yl)sulfonyl)-N-(pyridin-2-yl)acetamide], for which the “Efficacy (% ACh maximum at 30 μM)” value is on record as 43% and the negative logarithm of the EC50 (pEC50) is 5.57. In the case of `Cc1cc(NC(=O)CS(=O)(=O)c2cn(Cc3cccc(C(F)(F)F)c3)c3ccccc23)no1` [compound 54, N-(5-methyl-1,2-oxazol-3-yl)-2-(1-{[3-(trifluoromethyl)phenyl]methyl}-1H-indole-3-sulfonyl)acetamide], the pEC50 was under 5.00.

For the compound `O=C(CS(=O)(=O)c1cn(Cc2cccc(Br)c2)c2cc(F)cc(F)c12)NCc1ccccn1` [compound 39, 2-((1-(3-bromobenzyl)-4,6-difluoro-1H-indol-3-yl)sulfonyl)-N-(pyridin-2-ylmethyl)acetamide], the “Efficacy (% ACh maximum at 30 μM)” value was found to be 34% and the pEC50 was under 5.00.
